Key:
[1] = tested on: glutathione peroxidase (GPx); experiment: AcP-IgAN model: renal GPx; assay type: in vivo, B cell-deficient mice; conditions: AcP-IgAN mice
Experimental: (§1) B cell-deficient mice (B6.129S2-Igh-6tm1Cgn/J) were obtained from the Academia Sinica (Professor John T. Kung, Institute of Molecular Biology), and maintained at the animal center of the National Defense Medical Center, Taipei, Taiwan. AcP-IgAN was induced in the mice by daily injection of purified IgA anti-phosphorylcholine antibodies and pneumococcal C-polysaccharide (PnC) as described previously (Chao, et al., Kidney Int. 70:283-297; 2006). All animal experiments were performed with the approval of the Institutional Animal Care and Use Committee of The National Defense Medical Center, Taiwan, and were consistent with the NIH Guide for the Care and Use of Laboratory Animals.
Nuclear proteins were extracted using a nuclear extract kit (Active Motif, Japan). Phospho-NF-κB p65 and nuclear factor-erythroid-2-related factor 2 (NrF2) were measured in renal tissue nuclear protein extracts using Trans-AM ELISA assay kits (Active Motif), according to the manufacturer's instructions. Renal cytosolic protein extracts using RIPA buffer (Cell signaling). Cytosolic glutathione peroxidase (GPx) (Cayman, Mich.) and cytosolic heme oxygenase-1 (HO-1) (Enzo Life Sciences, NY) were measured using commercial ELISA kits according to the manufacturer's instructions. Both were expressed relative to the protein concentration in the lysate.

GPx = experiment: FSGS model: GPx activity in the kidney; assay type: in vivo, BALB/c mice; conditions: FSGS mice, day 7 until day 21, vs control FSGS mice
Experimental: (§2) Experiments described herein were performed on 8-week-old female BALB/c mice. The FSGS mice were injected intravenously with a single dose of adriamycin (0.1 mg/10 g body weight). The mice were given Compound 1 six hours before adriamycin injection by gavage daily till sacrifice. BALB/c mice intraperitoneal injected with normal saline were used as normal controls, while ASLN mice given vehicle (corn oil) by gavage were used as disease controls. Mice were killed at day 7, 14, or 21 after disease induction, and spleen, renal cortical tissue, and blood samples collected and stored appropriately until analysis. All animal experiments were performed with the ethical approval of the Institutional Animal Care and Use Committee of The National Defense Medical Center, Taiwan and performed according to the ethical rules in the NIH Guide for the Care and Use of Laboratory Animals.
GPx activity in renal tissues was measured using a commercial Glutathione Peroxidase Assay kit (Cayman, Mich., USA) according to the manufacturer's instructions Enzyme activity was expressed relative to the protein concentration of glomerular homogenates.

nitric oxide (NO) = experiment: AcP-IgAN model: NO levels; assay type: in vivo, B cell-deficient mice; conditions: AcP-IgAN mice
Text: NO levels in serum were detected with NO Detection kit (iNtRON Biotechnology, Seongnam, Korea), based on diazotization (Griess method), according to the manufacturer's instructions.
as §1

[2] = AcP-IgAN model: body weight and general condition; assay type: in vivo, B cell-deficient mice; conditions: AcP-IgAN mice, 50 mg/kg, up to day 28
Experimental: as §1
(§3) Body weight of the mice was measured weekly. Urine samples were collected in metabolic cages weekly, and urine protein determined followed the know methods (Chao, et al., Kidney Int. 70:283-297; 2006). Serum samples were collected at day 3 and day 28 to measure serum levels of blood urea nitrogen (BUN) and creatinine (Cr).

[3] = AcP-IgAN model: urine protein and renal function (BUN, Cr); assay type: in vivo, B cell-deficient mice; conditions: AcP-IgAN mice
Experimental: as §1, §3

[4] = based on a previous study and empirical use (Chang et al. 2008); cited from earlier work
IL-18 = experiment: AcP-IgAN model: serum IL-18 ELISA; assay type: in vivo, B cell-deficient mice; conditions: AcP-IgAN mice, day 28, vs control AcP-IgAN mice
Experimental: as §1
(§4) Serum levels of IL-1β (eBiosceience, CA), IL-6 (eBiosceience), IL-18 (MBL, Japan), and MCP-1 (eBiosceience) were measured using commercial ELISA kits according to the manufacturer's instructions.

desmin = experiment: FSGS model: podocyte injury, desmin IHC; assay type: in vivo, BALB/c mice; conditions: FSGS mice
Experimental: as §2, with “All animal experiments were performed with the ethical approval of the Institutional Animal Care and Use Committee of The National Defense Medical Center, Taiwan and performed according to the ethical rules in the NIH Guide for the Care and Use of Laboratory Animals.” left out
For IHC, formalin-fixed and paraffin-embedded renal sections were prepared and incubated with primary antibodies against mouse Desmin (Lab Vision, CA, USA), CD3 (pan-T cell; Serotec, N.C., USA), F4/80 (monocytes/macrophages; Serotec), IL-6 (R&D Systems, MN, USA), NF-κB p65 (Cell Signaling Technology, MA, USA), collagen I, III, and IV (Southern Biotech, AL, USA), or TGF-β1 (Santa Cruz Biotechnology, CA, USA), biotinylated second antibodies (Dako, Glostrup, Denmark), and avidin-biotin-peroxidase complex (Dako). Semi-quantitative evaluation of staining was performed.

splenocytes = experiment: AcP-IgAN model: flow cytometry of T cell activation in splenocytes; assay type: in vivo, B cell-deficient mice; conditions: AcP-IgAN mice
Experimental: as §1
Splenocytes from the mice were treated with Tris-buffered ammonium chloride to eliminate erythrocytes, washed, resuspended in RPMI 1640 supplemented with 10% fetal calf serum, HEPES buffer, L-glutamine, and penicillin/streptomycin (all from Invitrogen). The cells were stained with either surface marker for T or B cell activation. FITC-conjugated anti-mouse CD3, CD4, CD8, or CD19 (B cell) antibodies and phycoerythrin (PE)-conjugated anti-mouse CD69 antibodies (all from BD Biosciences) were analyzed with FACSCalibur (BD Biosciences).

MCP-1 = experiment: AcP-IgAN model: serum MCP-1 ELISA; assay type: in vivo, B cell-deficient mice; conditions: AcP-IgAN mice, day 3 until day 28, vs control AcP-IgAN mice; only baseline levels
Experimental: as §1, §4

[5] = day 3, vs control AcP-IgAN mice
[6] = day 28, vs control AcP-IgAN mice
[7] = day 3, between control AcP-IgAN, AcP-IgAN+Antroq and normal control mice

COC1=C(OC)[C@H](O)[C@H](C/C=C(\C)CC/C=C(\C)CCC=C(C)C)[C@@H](C)C1=O [Compound 1, Antroquinonol]
GPx expression levels in renal tissues [1, 5]: no difference
GPx expression levels in renal tissues [1, 6]: significantly higher
GPx activity in the kidney (GPx): recovered GPx activity
urine NO levels (nitric oxide (NO); both day 3 and day 28, vs control AcP-IgAN mice): significantly decreased
serum levels of NO (nitric oxide (NO); [5]): no significant difference
serum levels of NO (nitric oxide (NO); [6]): substantially reduced
activity, hair loss, appetite [2]: normal activity and no evidence of hair loss or appetite change
growth (body weight recorded every week) [2]: no different from that of normal controls
urine protein levels ([3]; 50 mg/kg, day 7 to day 28, vs control AcP-IgAN mice (vehicle)): greatly suppressed
proteinuria ([3]; compared to normal controls): mild proteinuria
serum levels of BUN [3, 7]: no significant difference
serum levels of Cr [3, 7]: no significant difference
serum levels of BUN [3, 6]: much better renal function
serum levels of creatinine [3, 6]: much better renal function
effective range [4]: 10-50 mg/kg body weight
serum IL-18 levels (IL-18): substantial inhibition
expression of desmin (IHC) (desmin; day 21, compared to normal control mice): mild desmin expression levels
expression of desmin (IHC) (desmin; days 14 and 21, vs control FSGS mice): significantly reduced
percentage of CD3^+/CD69^+ T cells in splenocytes (splenocytes; [5]): significant reduction
percentage of CD4^+/CD69^+ T cells in splenocytes (splenocytes; [5]): no significant difference
percentage of CD8^+/CD69^+ T cells in splenocytes (splenocytes; [5]): no significant difference
percentage of each of the three subtypes of T cells (CD3^+/CD69^+, CD4^+/CD69^+, CD8^+/CD69^+) (splenocytes; day 28): no different from that of normal controls
serum levels of MCP-1 (elevation) (MCP-1): greatly inhibited

Reference: US10406120B2, “Methods and compositions for treating kidney disorders” (Golden Biotechnology Corporation, priority 2013, dated 2019)
